Reference: paper PMC4767605 (Cancer chemotherapy and pharmacology, 2016)

Experiments:
[1] = system: breast cancer (MDA-MB-231); test: Breast cancer xenograft in mice, combination with paclitaxel; assay type: in vivo; settings: ASP9853 in combination with paclitaxel; MDA-MB-231 xenograft; data not shown
ovarian cancer (MCUAS) = test: Ovarian cancer xenograft in mice, combination with paclitaxel; assay type: in vivo; settings: ASP9853 in combination with paclitaxel, data not shown
[2] = Phase I study: plasma pharmacokinetics of ASP9853 and docetaxel; assay type: in vivo, human; settings: for Median ASP9853 Cmax / Median AUC24 for ASP9853: Cycle 1/Day 1
[3] = system: human NSCLC cell line Calu-6; settings: ASP9853 alone, 100 mg/kg oral, twice daily
advanced solid tumors = settings: ASP9853 + docetaxel
[4] = Cohort 1: ASP9853 25 mg + docetaxel 60 mg/m^2
[5] = Cohort 2: ASP9853 25 mg + docetaxel 75 mg/m^2
[6] = Cohort 3: ASP9853 37.5 mg + docetaxel 60 mg/m^2
[7] = Cohort 4: ASP9853 50 mg + docetaxel 60 mg/m^2

With `O.O.O=C(/C=C/c1ccc(Cl)cc1)N[C@@H](Cc1ccccn1)C(=O)NCC(=O)N1CCC(Oc2cc(C(F)(F)F)ncn2)CC1` [ASP9853, (2E)-3-(4-chlorophenyl)-N-[(1S)-2-oxo-2-{[2-oxo-2-(4-{[6-(trifluoromethyl)-4-pyrimidinyl]oxy}-1-piperidinyl)ethyl]amino}-1-(2-pyridinylmethyl)ethyl]acrylamide dehydrate] the Tumor growth inhibition [1] was “greater tumor growth inhibition”, the Tumor growth inhibition (ovarian cancer (MCUAS)) was “greater tumor growth inhibition” and the “ASP9853 PK profiles in patients with versus without neutropenic DLTs” value ([2]; Cycle 1, Day 1, high interpatient variability) was “no clear difference”. For the same compound, the “Median ASP9853 Cmax” value [2, 4] was 747 ng/mL, the “Median AUC24 for ASP9853” value [2, 4] was 3769 ng·h/mL and the “Median ASP9853 Cmax” value [2, 5] was 1019 ng/mL. For the same compound, the “Median AUC24 for ASP9853” value [2, 5] was 8839 ng·h/mL, the “Median ASP9853 Cmax” value [2, 6] was 2450 ng/mL and the “Median AUC24 for ASP9853” value [2, 6] was 7075 ng·h/mL. The “Median ASP9853 Cmax” value [2, 7] was 1490 ng/mL, the “Median AUC24 for ASP9853” value [2, 7] was 6922 ng·h/mL and the “ASP9853 cleared from plasma within 24 hours after administration” value ([2]; in vivo) was “more than 95%”. For the same compound, the “Tmax of ASP9853” value ([2]; oral, patients with advanced solid tumors) was 30 to 252 min, the “ASP9853 plasma exposure (AUC24) when administered in combination with docetaxel” value ([2]; sample size too small for statistical significance, data not shown) was “appeared lower” and the “Antitumor activity in the Calu-6 NSCLC xenograft model” value [3] was “no antitumor activity”. The “Duration of stable disease, mean (SD)” value (advanced solid tumors) was 49.4 (47.2) days, the “Duration of stable disease, median [range]” value (advanced solid tumors) was 78 [1–133] days and the “Patients with best overall response of stable disease” value (advanced solid tumors; Eight patients) was 38.1%. For the same compound, the Objective radiographic responses (advanced solid tumors; eighteen patients evaluable) was “no objective radiographic responses were observed”.
